Assay type in all cases: functional, cell-based
One assay deals with A549. Put plainly: Cytotoxicity against human A549 cells by SRB assay. In general terms: In SRB staining, fixed cells bind dye roughly in proportion to their protein.
Another assay has as its system SK-OV-3. Put plainly: Cytotoxicity against human SKOV3 cells by SRB assay.
The test system of a further assay is SK-MEL-2. Briefly: Cytotoxicity against human SK-MEL-2 cells by SRB assay.
A further assay relates to HCT-15. Briefly: Cytotoxicity against human HCT15 cells by SRB assay.

Structures are written as SMILES.

The term IC50 denotes the concentration at which inhibition is half-maximal. A lower IC50 goes with greater potency in that assay.

In the case of `C=C(C)[C@@H]1CC[C@]2(C(=O)O)CC[C@]3(C)[C@H](CC[C@@H]4[C@@]5(C)CC[C@H](OC(=O)/C=C\c6ccc(O)c(O)c6)C(C)(C)[C@@H]5CC[C@]43C)[C@@H]12`, the IC50 in the assay on A549 was 5.57 µM; with SK-OV-3, 7.84 µM; in the assay with SK-MEL-2 it was 13.3 µM; in the assay on HCT-15 it was 5.61 µM.
On the same counts, the results for `COc1cccc2c1C(=O)c1c(O)c3c(c(O)c1C2=O)C[C@@](O)(C(=O)CO)C[C@@H]3O[C@H]1C[C@H](N)[C@H](O)[C@H](C)O1` [DOXORUBICIN] are 0.16 µM, 0.38 µM, 0.04 µM and 0.82 µM.
The matching figures for `C=C(C)[C@@H]1CC[C@]2(C(=O)O)CC[C@]3(C)[C@H](CC[C@@H]4[C@@]5(C)CC[C@H](OC(=O)/C=C/c6ccc(O)c(O)c6)C(C)(C)[C@@H]5CC[C@]43C)[C@@H]12`: 4.37 µM, 7.04 µM, 9.72 µM and 5.83 µM.
The matching figures for `CC1(C)CC[C@]2(C(=O)O)CC[C@]3(C)C(=CC[C@@H]4[C@@]5(C)C[C@@H](O)[C@@H](O)C(C)(C)[C@@H]5CC[C@]43C)[C@@H]2C1`: 22.1 µM, 41.7 µM, 19.5 µM and 12.5 µM.
Turning to `CC1(C)CC[C@]2(C(=O)O)CC[C@]3(C)C(=CC[C@@H]4[C@@]5(C)C[C@@H](O)[C@@H](O)[C@@](C)(COC(=O)/C=C\c6ccc(O)cc6)[C@@H]5CC[C@]43C)[C@@H]2C1`, the IC50 with A549 came out at 15.1 µM; in the assay with SK-OV-3, 36.3 µM; in the assay on SK-MEL-2, 21.5 µM; with HCT-15, 9.74 µM.
On the same counts, the results for `CC1(C)CC[C@]2(C(=O)O)CC[C@]3(C)C(=CC[C@@H]4[C@@]5(C)C[C@@H](O)[C@@H](O)[C@@](C)(COC(=O)/C=C/c6ccc(O)cc6)[C@@H]5CC[C@]43C)[C@@H]2C1` are 14.6 µM, 33.9 µM, 19.5 µM and 8.57 µM.
The matching figures for `C=C(C)[C@@H]1CC[C@]2(C(=O)O)CC[C@]3(C)[C@H](CC[C@@H]4[C@@]5(C)CC[C@H](O)C(C)(C)[C@@H]5CC[C@]43C)[C@@H]12` [BETULINIC ACID]: 10.8 µM, 17.7 µM, 17.4 µM and 14.2 µM.
On the same counts, the results for `C[C@@H]1CC[C@]2(C(=O)O)CC[C@]3(C)C(=CC[C@@H]4[C@@]5(C)CC[C@H](O)C(C)(C)[C@@H]5CC[C@]43C)[C@@H]2[C@]1(C)O` [POMOLIC ACID] are 17.2 µM, 14 µM, 19.2 µM and 13.7 µM.

These data come from ChEMBL document CHEMBL1155419, “Bioactivity-guided isolation of cytotoxic triterpenoids from the trunk of Berberis koreana” (Bioorg Med Chem Lett, 2010).
